“Also recorded” adds a separate entry of the source.
How the values were obtained:
[1] = tested on: PBMC from coeliac subjects; test: IFNγ ELISPOT with PBMC of coeliac disease subjects after bread/gluten challenge; assay type: cell-based, human; conditions: for % bioactivity compared to unmodified A-gliadin 57-73 QE65 / greater bioactivity than the parent peptide: 50 mcg/ml; for % bioactivity compared to unmodified A-gliadin 57-73 QE65: PBMC from 8 subjects, mean response as % A-G 57-73 QE65 mean response, blank 7.1%; for Mean response as % of the response to the immunodominant epitope: 57-73 A-gliadin epitope substituted at position 65, synthetic peptides 50 μg/ml, 3 coeliac subjects, 6 days after commencing gluten challenge; for % agonist.: agonist activity compared to A-gliadin 57-73 QE65 as shown in Table 9; for ELISpot response as % A-gliadin 57-73 QE65, E-substituted: glutamate-substituted peptide; for ELISpot response as % A-gliadin 57-73 QE65, E-substituted / ELISpot response as % A-gliadin 57-73 QE65, Wildtype + tTG / ELISpot response as % A-gliadin 57-73 QE65, Wild type: 25 mcg/ml, 4 subjects, blank 5 (1) %; for ELISpot response as % A-gliadin 57-73 QE65, Wildtype + tTG: tTG-treated wild type peptide; for ELISpot response as % A-gliadin 57-73 QE65, Wild type: unmodified gliadin peptide; for Elisopt response TG: peptide treated with transglutaminase; for Elisopt response TG / Elisopt response No TG: mean (range), 3 subjects, as in Example 2; for Elisopt response No TG: peptide without transglutaminase treatment; for greater bioactivity than the parent peptide: parent A-gliadin 57-73 QE65
[2] = tested on: PBMC from coeliac volunteers; test: Antagonism of A-gliadin 57-73 QE65 interferon gamma ELISPOT response (simultaneous addition of peptide); assay type: cell-based, human
Experimental: Simultaneous addition of peptide (50 μg/ml) or buffer and A-gliadin 57-73 QE65 (10 μg/ml) in IFNgamma ELISPOT using PBMC from coeliac volunteers 6 days after commencing 3 day gluten challenge (n=5). Results were expressed as response with peptide plus A-G 57-73 QE65 (mean of duplicates) as % response with buffer plus A-G 57-73 QE65 (mean of 20 replicates). (See Table 9).

[3] = tested on: gluten-specific T cell clones and lines; conditions: from original publications; iTCC intestinal T cell clone, iTCL intestinal polyclonal T cell line, bTCC peripheral blood T cell clone; NS not given; cited from earlier work
[4] = tested on: PBMC from newly diagnosed coeliac subjects; test: Interferon gamma ELISpot with PBMC of newly diagnosed coeliac subjects, gluten challenge after short GFD; assay type: cell-based, human; conditions: 25 mcg/ml
Experimental: Newly diagnosed DQ2+ coeliac subjects were recruited from the gastroenterology outpatient service. PBMC were prepared and tested in interferon gamma ELISpot assays before subjects commenced GFD, and at one or two weeks after commencing GFD. In addition, gluten challenge (3 days consuming 4 slices standard white bread, 200 g/day) was performed at one or two weeks after starting GFD. PBMC were prepared and assayed on day six are after commencing gluten challenge. A-gliadin 57-73 QE65 (A), P04724 84-100 QE92 (B) (alone and combined) and A-gliadin 57-73 QP65 (P65) (non-bioactive variant, see above) (all 25 mcg/ml) were assessed.

[5] = substituted variant 50 μg/ml plus A-gliadin 57-73 QE65 10 μg/ml, n=5
[6] = coeliacs who had followed GFD for only one week
[7] = gluten challenge 2 weeks after commencing GFD, compared with A-gliadin 57-73 QP65 and blank
[8] = naturally occurring polymorphisms of A-gliadin 57-73 QE65, 50 μg/ml plus A-gliadin 57-73 QE65 10 μg/ml

Compound: N[C@@H](CS)C(=O)O [C65]
- % bioactivity compared to unmodified A-gliadin 57-73 QE65 [1]: 42%
- Mean response as % of the response to the immunodominant epitope [1]: 62%

Compound: N[C@@H](CC(=O)O)C(=O)O [D65]
- % bioactivity compared to unmodified A-gliadin 57-73 QE65 [1]: 95%
- Mean response as % of the response to the immunodominant epitope [1]: 65%

Compound: N[C@@H](Cc1c[nH]cn1)C(=O)O [H65]
- % bioactivity compared to unmodified A-gliadin 57-73 QE65 [1]: 26%
- Mean response as % of the response to the immunodominant epitope ([1]; listed as Histidine): 8%
- % agonist. [1]: 16%
- % Inhibit. of A-gliadin 57-73 QE65 interferon gamma ELISpot response [2, 5]: 20%

Compound: NCCCC[C@H](N)C(=O)O [K65]
- % bioactivity compared to unmodified A-gliadin 57-73 QE65 [1]: 8%
- Mean response as % of the response to the immunodominant epitope ([1]; listed as Lysine): 4%
- % agonist. [1]: 8%
- % Inhibit. of A-gliadin 57-73 QE65 interferon gamma ELISpot response [2, 5]: 15%

Compound: CC(C)C[C@H](N)C(=O)O [L65]
- % bioactivity compared to unmodified A-gliadin 57-73 QE65 [1]: 16%
- Mean response as % of the response to the immunodominant epitope [1]: 33%
- % agonist. [1]: 26%
- % Inhibit. of A-gliadin 57-73 QE65 interferon gamma ELISpot response [2, 5]: 20%

Compound: N=C(N)NCCC[C@H](N)C(=O)O [R65]
- % bioactivity compared to unmodified A-gliadin 57-73 QE65 [1]: 11%
- Mean response as % of the response to the immunodominant epitope ([1]; listed as Arginine): 1%
- % agonist. [1]: 11%
- % Inhibit. of A-gliadin 57-73 QE65 interferon gamma ELISpot response [2, 5]: 13%

Compound: C[C@@H](O)[C@H](N)C(=O)O [T65]
- % bioactivity compared to unmodified A-gliadin 57-73 QE65 [1]: 7%
- Mean response as % of the response to the immunodominant epitope [1]: 55%
- % agonist. [1]: 19%
- % Inhibit. of A-gliadin 57-73 QE65 interferon gamma ELISpot response [2, 5]: 28%

Compound: N[C@@H](Cc1ccc(O)cc1)C(=O)O [Y65]
- Mean response as % of the response to the immunodominant epitope ([1]; listed as Tyrosine): 8%
- % agonist. [1]: 7%
- % Inhibit. of A-gliadin 57-73 QE65 interferon gamma ELISpot response [2, 5]: 12%

Compound: GQQGYYPTSPQQSGQ
- Frequency [3]: 1/1 (iTCC)

Compound: LGQQQPFPPQQPYPQPQPF
- Frequency [3]: 1/23 (bTCC)

Compound: PQLPYPQPELPYPQPQP [P04724 84-100 QE92, glutamate-substituted polymorphism GDA4_WHEAT P04724 84-100 (K)]
- ELISpot response as % A-gliadin 57-73 QE65, E-substituted [1]: 69 (20) %
- ELISpot response as % A-gliadin 57-73 QE65, Wildtype + tTG [1]: 80 (17) %
- ELISpot response as % A-gliadin 57-73 QE65, Wild type [1]: 14 (4) %
- responses after gluten challenge [4, 6]: did not substantially enhance responses
- responses after gluten challenge [4, 7]: did induce responses

Compound: PQLPYPQPQLPYPQPQP
- Elisopt response TG [1]: 109 (41-152)
- Elisopt response No TG [1]: 3 (0-7)

Compound: PQPELPYPQPELPY [reference compound]
- ELISpot response as % A-gliadin 57-73 QE65, E-substituted [1]: 48 (9) %
- ELISpot response as % A-gliadin 57-73 QE65, Wildtype + tTG [1]: 53 (8) %
- ELISpot response as % A-gliadin 57-73 QE65, Wild type [1]: 13 (6) %
- Frequency [3]: 11/17 (iTCL)

Compound: PQPQPFLPELPYPQPQS [P04727 79-95 QE65, glutamate-substituted polymorphism GDA7_WHEAT P04727 79-95 (M)]
- % Inhibit. of A-gliadin 57-73 QE65 interferon gamma ELISpot response [2, 8]: 6%

Compound: PQPQPFLPQLPYPQPQS
- Elisopt response TG [1]: 21 (11-33)
- Elisopt response No TG [1]: 10 (0-30)

Compound: PQPQPFPPELPYPQPPP [P04726 82-98 QE90, glutamate-substituted polymorphism GDA6_WHEAT P04726 82-98 (P)]
- % Inhibit. of A-gliadin 57-73 QE65 interferon gamma ELISpot response [2, 8]: 5%

Compound: PQPQPFPPELPYPQPQS [P04725 82-98 QE90, glutamate-substituted polymorphism GDA5_WHEAT P04725 82-98 (N)]
- % Inhibit. of A-gliadin 57-73 QE65 interferon gamma ELISpot response [2, 8]: 19%

Compound: PQPQPFPPELPYPQTQP [P04723 77-93 QE85, glutamate-substituted polymorphism GDA3_WHEAT P04723 77-93 (O)]
- % Inhibit. of A-gliadin 57-73 QE65 interferon gamma ELISpot response [2, 8]: 10%

Compound: PQPQPFPPQLPYPQPPP
- Elisopt response TG [1]: 19 (11-33)
- Elisopt response No TG [1]: 10 (0-30)

Compound: PQPQPFPPQLPYPQPQS
- Elisopt response TG [1]: 24 (11-43)
- Elisopt response No TG [1]: 17 (0-40)

Compound: QLQPFLQPELPYSQPQP [Q41509 77-93 QE85, glutamate-substituted polymorphism Q41509 77-93]
- % Inhibit. of A-gliadin 57-73 QE65 interferon gamma ELISpot response ([2]; naturally occurring polymorphisms of A-gliadin 57-73 QE65, 50 μg/ml plus A-gliadin 57-73 QE65 10 μg/ml, polymorphism SEQ ID NO 71): 11%
- % Inhibit. of A-gliadin 57-73 QE65 interferon gamma ELISpot response ([2]; naturally occurring polymorphisms of A-gliadin 57-73 QE65, 50 μg/ml plus A-gliadin 57-73 QE65 10 μg/ml, polymorphism SEQ ID NO 76): 6%

Compound: QLQPFLQPQLPYSQPQP
- Elisopt response TG [1]: 3 (0-7)
- Elisopt response No TG [1]: 0 (0-1)

Compound: QLQPFPQPELPY [reference compound]
- ELISpot response as % A-gliadin 57-73 QE65, E-substituted [1]: 8 (3) %
- ELISpot response as % A-gliadin 57-73 QE65, Wildtype + tTG [1]: 19 (1) %
- ELISpot response as % A-gliadin 57-73 QE65, Wild type [1]: 6 (2) %
- Frequency [3]: 12/17 (iTCL)

Compound: QLQPFPQPELPYPQPQS (listed as Triticum sp.) [A-gliadin 57-73 QE65]
- Mean response as % of the response to the immunodominant epitope [1]: 100%
- IFNγ ELISPOT response (result in words) ([1]; PBMC after 3 day bread/gluten challenge): induced maximal responses; also recorded: most potent gliadin peptide for induction of interferon gamma
- ELISpot response as % A-gliadin 57-73 QE65, E-substituted [1]: 100%
- Frequency ([1]; in vivo (gluten challenge), DQ2): 11/12 in vivo
- Elisopt response TG [1]: 100 (100)
- ELISpot response as % A-gliadin 57-73 QE65, Wildtype + tTG [1]: 87 (7) %
- ELISpot response as % A-gliadin 57-73 QE65, Wild type [1]: 18 (7) %
- responses after gluten challenge [4, 6]: did not substantially enhance responses
- responses after gluten challenge [4, 7]: did induce responses

Compound: QLQPFPQPELPYSQPQP [P02863 77-93 QE85, glutamate-substituted polymorphism GDA0_WHEAT P02863 77-93 (F)]
- % Inhibit. of A-gliadin 57-73 QE65 interferon gamma ELISpot response [2, 8]: 6%

Compound: QLQPFPQPELSYSQPQP [Gliα 3-5 57-73 QE65, glutamate-substituted polymorphism Gli alpha 3,4, 5 57-73 (I)]
- % Inhibit. of A-gliadin 57-73 QE65 interferon gamma ELISpot response [2, 8]: 7%

Compound: QLQPFPQPQLPYPQPQL
- Elisopt response TG [1]: 83 (74-97)
- Elisopt response No TG [1]: 19 (0-33)

Compound: QLQPFPQPQLPYPQPQP
- Elisopt response TG [1]: 83 (61-113)
- Elisopt response No TG [1]: 12 (0-20)

Compound: QLQPFPQPQLPYSQPQP
- Elisopt response TG [1]: 53 (44-67)
- Elisopt response No TG [1]: 5 (1-7)

Compound: QLQPFSQPQLPYSQPQP
- Elisopt response TG [1]: 2 (0-7)
- Elisopt response No TG [1]: 0 (0-0)

Compound: QPQPFPPPELPYPQTQP [Gliα 1,6 58-74 QE66, glutamate-substituted polymorphism Gli alpha 1, 6 58-74 (J)]
- % Inhibit. of A-gliadin 57-73 QE65 interferon gamma ELISpot response [2, 8]: 11%

Compound: QQLPQPEQPQQSFPEQERPF [reference compound]
- ELISpot response as % A-gliadin 57-73 QE65, E-substituted [1]: 10 (5) %
- ELISpot response as % A-gliadin 57-73 QE65, Wildtype + tTG [1]: 18 (7) %
- ELISpot response as % A-gliadin 57-73 QE65, Wild type [1]: 9 (3) %

Compound: QQYPSGEGSFQPSQENPQ [reference compound]
- ELISpot response as % A-gliadin 57-73 QE65, E-substituted [1]: 14 (8) %
- ELISpot response as % A-gliadin 57-73 QE65, Wildtype + tTG [1]: 9 (3) %
- ELISpot response as % A-gliadin 57-73 QE65, Wild type [1]: 10 (3) %

Compound: Y61: A-gliadin 57-73 QE65 variant, Y at position 61 (QLQPYPQPELPYPQPQS)
- % bioactivity compared to unmodified A-gliadin 57-73 QE65 [1]: 129%
- greater bioactivity than the parent peptide [1]: 30%

Compound: Y70: A-gliadin 57-73 QE65 variant, Y at position 70 (QLQPFPQPELPYPYPQS)
- % bioactivity compared to unmodified A-gliadin 57-73 QE65 [1]: 129%
- greater bioactivity than the parent peptide [1]: 30%

Reference: patent US20180057547A1, “DIAGNOSTIC AND THERAPEUTIC EPITOPE, AND TRANSGENIC PLANT” (OXFORD UNIVERSITY INNOVATION LIMITED, priority 1999, published 2018)
